Measurements taken from US8663912B2, “Fluorogenic substrate for ADAMTS13” (Washington University, priority 2011, dated 2014).
* marks the point of attachment. X1 = CC1(C)C(/C=C/C2=C(Cl)C(=C/C=C3/N(CCCCCC(=O)*)c4ccc5cc(S(=O)(=O)O)ccc5c4C3(C)C)/CCC2)=[N+](CCCS(=O)(=O)[O-])c2ccc(N(CCCS(=O)(=O)O)CCCS(=O)(=O)O)cc21; X2 = CC(C)(C)c1cc(/C=C/C=C2\N(CCCS(=O)(=O)O)c3ccc(S(=O)(=O)O)cc3C2(C)CCCC(=O)CCN2C(=O)CC(*)C2=O)c2ccc(N(CCCS(=O)(=O)[O-])CCCS(=O)(=O)O)cc2[o+]1

Tests used:
plasma ADAMTS13 = molecular target: T1, plasma ADAMTS13 (Homo sapiens, UniProt Q76LX8); assay: Kinetics of FRETS-rVWF71 cleavage by plasma ADAMTS13 (Michaelis-Menten); format: biochemical
T1 construct: from tissue; host or cells: human plasma or serum (pooled normal plasma, healthy donors, TTP patients)
T1 sequence (Q76LX8 75-1427): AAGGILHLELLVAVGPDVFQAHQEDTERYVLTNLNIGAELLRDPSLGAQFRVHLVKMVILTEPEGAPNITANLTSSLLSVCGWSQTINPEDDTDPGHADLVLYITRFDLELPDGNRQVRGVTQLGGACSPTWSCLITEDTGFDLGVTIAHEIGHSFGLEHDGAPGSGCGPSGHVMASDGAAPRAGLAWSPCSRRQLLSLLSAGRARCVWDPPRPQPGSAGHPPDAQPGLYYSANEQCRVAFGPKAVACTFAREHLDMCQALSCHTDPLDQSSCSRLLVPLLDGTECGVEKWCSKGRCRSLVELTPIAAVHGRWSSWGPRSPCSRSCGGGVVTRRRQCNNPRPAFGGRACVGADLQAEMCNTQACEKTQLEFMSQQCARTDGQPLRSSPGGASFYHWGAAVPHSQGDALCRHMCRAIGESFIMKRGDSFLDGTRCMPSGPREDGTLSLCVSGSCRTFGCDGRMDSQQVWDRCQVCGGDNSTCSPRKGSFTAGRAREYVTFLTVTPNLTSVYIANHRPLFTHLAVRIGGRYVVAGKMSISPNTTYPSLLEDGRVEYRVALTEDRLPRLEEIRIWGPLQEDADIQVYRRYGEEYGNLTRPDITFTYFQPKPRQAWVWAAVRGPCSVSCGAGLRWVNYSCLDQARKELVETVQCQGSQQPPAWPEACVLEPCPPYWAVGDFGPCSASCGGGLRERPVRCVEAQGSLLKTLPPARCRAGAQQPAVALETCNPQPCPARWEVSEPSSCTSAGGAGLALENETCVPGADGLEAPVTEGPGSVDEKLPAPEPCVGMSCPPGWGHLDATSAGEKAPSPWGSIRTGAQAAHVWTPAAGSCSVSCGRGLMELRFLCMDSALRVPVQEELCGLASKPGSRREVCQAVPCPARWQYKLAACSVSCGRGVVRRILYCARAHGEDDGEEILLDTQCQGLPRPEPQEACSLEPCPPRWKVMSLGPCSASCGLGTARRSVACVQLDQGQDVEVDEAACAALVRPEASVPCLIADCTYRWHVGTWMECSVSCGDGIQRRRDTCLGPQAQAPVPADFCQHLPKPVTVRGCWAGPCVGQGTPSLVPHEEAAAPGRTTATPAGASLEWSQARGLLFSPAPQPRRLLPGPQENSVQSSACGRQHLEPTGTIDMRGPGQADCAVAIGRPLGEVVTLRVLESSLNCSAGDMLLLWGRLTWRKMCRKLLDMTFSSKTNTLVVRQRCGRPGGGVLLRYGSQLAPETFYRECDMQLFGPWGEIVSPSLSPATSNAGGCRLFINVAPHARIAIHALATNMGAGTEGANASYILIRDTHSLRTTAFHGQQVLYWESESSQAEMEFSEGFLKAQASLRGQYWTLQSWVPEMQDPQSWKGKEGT
Method: In these experiments, FRETS-rVWF71 cleavage by plasma ADAMTS13 (50 μL) was assessed in 200 μL reactions containing 50 mM HEPES, pH 7.4, 10 mM CaCl2, 150 mM NaCl, and 0.05% Tween-20, and varying concentrations of FRETS-rVWF71. The concentration of ADAMTS13 in PNP is ˜1.03 μg/ml (Feys, H. B., et al. J. Thromb. Haemost 4:955-62, 2006), or ˜6 nM for a molecular mass of 170 kDa. For each concentration of substrate, the relationship between product fluorescence and concentration was determined directly by cleaving FRETS-rVWF71 to completion with excess recombinant ADAMTS13 MDTCS (Feys, H. B., et al. J. Thromb. Haemost. 7:2088-95, 2009) and measuring the fluorescence. Control assays contained plasma that was completely deficient in ADAMTS13. The initial velocities (nM/min) as a function of substrate concentration were fitted to the Michealis-Menten equation by nonlinear regression analysis (Prism, GraphPad).
(FIG. 6). […] (Anderson, P. J., et al. J. Biol. Chem. 281:850-7, 2006).

ADAMTS13 = molecular target: T2, ADAMTS13 (Homo sapiens, UniProt Q76LX8); assay: ADAMTS13 activity of plasma samples with FRETS-rVWF71 substrate; format: biochemical; set-up: from tissue; host or cells: human plasma or serum (pooled normal plasma, healthy donors, TTP patients); conditions: samples from patients with idiopathic TTP
T2 sequence (Q76LX8 75-1427): T1 sequence (Q76LX8 75-1427)
Method: Assays were performed at 30° C. Samples (100 μL) of plasma or serum, diluted as necessary in assay buffer, were pipetted in duplicate in 96 well white microplates (Optiplate-96, PerkinElmer, Waltham, Mass.). Reaction was initiated by addition of 100 μL substrate in assay buffer. Cleavage of FRETS-rVWF71 was detected as an increase in fluorescence compared to control reactions without added enzyme at 2 min intervals using a Victor^2V Multilabel Counter (PerkinElmer, Waltham, Mass.) or Synergy H1 Hybrid Multi-Mode Microplate Reader (Biotek, Winooski, Vt.) equipped with 635±10 nm excitation and 660±10 nm emission filters. Initial velocities were determined by fitting progress curves to the polynomial ΔF=A+Bt+Ct^2, where ΔF is the change in fluorescence, t is time, A is the y-intercept, B is the initial velocity (slope), and the term Ct^2 accounts for any decline in velocity due to substrate consumption or photobleaching.
In these experiments, frozen Li^+-heparin plasma samples were obtained from 100 healthy controls (Biological Specialty Corp., Colmar, Pa.) deidentified except for demographic information on gender, age, and ethnicity. Pooled normal Li^+-heparin plasma (PNP) for assay standardization was prepared from at least 35 donors. […] activity of randomly selected controls samples was determined by the FRETS-VWF73 method. […]

In the case of “X1-GQAPNLVYMVTGC(X2)PASDEIRRLPGDIQVVPIGVGPNANVQELERIGWPNAPILIQDFETLPREAPDLVLQR [FRETS-rVWF71]”, the “decrease of the rate of catalysis relative to FRETS-VWF73” value (plasma ADAMTS13; kcat compared with FRETS-VWF73) is reported as ~8 fold, the kcat (plasma ADAMTS13; plasma ADAMTS13, 50 mM HEPES pH 7.4, 10 mM CaCl2, 150 mM NaCl, 30° C.) is reported as 6.8 min⁻¹ and the “sensitivity of ADAMTS13 activity assay relative to FRETS-VWF73” value (ADAMTS13) is reported as 20 fold.
